Laboratory results published in ChEMBL document CHEMBL4382216, “Asymmetric synthesis and biological evaluation of imidazole- and oxazole-containing synthetic lipoxin A4 mimetics (sLXms)” (Eur J Med Chem, 2019).
Calls of active or inactive are those of the source. No cut-off for these calls is given here.

How the values were obtained:
[1] = species on record: Homo sapiens; test: Activation of Luc-fused NFkB (unknown origin) expressed in non-stimulated human THP1 cells assessed as relative luminescence unit at 10^-7 M after 24 hrs by luciferase reporter gene assay (reference value: 100%); type: cell-based
[2] = molecular target: T1, N-formyl peptide receptor 2 (Homo sapiens, UniProt P25090); test: Agonist activity at ALX/FPR2 in human THP1 cells harboring NF-kB-Luc assessed as inhibition of LPS-induced NFkB signalling activation by measuring reduction in IL-12p70 secretion pretreated for 30 mins followed by LPS stimulation for 24 hrs by electrochemiluminescence assay; type: cell-based
T1 sequence (P25090 whole entry): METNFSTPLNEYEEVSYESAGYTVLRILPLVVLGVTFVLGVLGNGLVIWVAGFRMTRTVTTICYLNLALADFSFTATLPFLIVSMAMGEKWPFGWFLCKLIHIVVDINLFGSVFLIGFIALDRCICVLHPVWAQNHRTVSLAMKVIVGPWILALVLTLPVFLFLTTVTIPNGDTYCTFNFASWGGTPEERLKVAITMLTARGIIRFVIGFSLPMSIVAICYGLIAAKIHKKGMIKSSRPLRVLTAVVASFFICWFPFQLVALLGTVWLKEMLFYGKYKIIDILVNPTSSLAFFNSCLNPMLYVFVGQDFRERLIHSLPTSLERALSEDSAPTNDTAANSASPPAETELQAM

[3] = molecular target: T1, N-formyl peptide receptor 2; test: Agonist activity at ALX/FPR2 in human THP1 cells harboring NF-kB-Luc assessed as inhibition of LPS-induced NFkB signalling activation by measuring reduction in IFNgamma secretion pretreated for 30 mins followed by LPS stimulation for 24 hrs by electrochemiluminescence assay; type: cell-based
[4] = molecular target: T1, N-formyl peptide receptor 2; test: Agonist activity at ALX/FPR2 in human THP1 cells harboring NF-kB-Luc assessed as inhibition of LPS-induced NFkB signalling activation by measuring reduction in TNFalpha secretion pretreated for 30 mins followed by LPS stimulation for 24 hrs by electrochemiluminescence assay; type: cell-based
[5] = species on record: Homo sapiens; test: Activation of Luc-fused NFkB (unknown origin) expressed in non-stimulated human THP1 cells assessed as relative luminescence unit at 10^-9 M after 24 hrs by luciferase reporter gene assay (reference value: 100%); type: cell-based
[6] = molecular target: T1, N-formyl peptide receptor 2; test: Agonist activity at ALX/FPR2 in human THP1 cells harboring NF-kB-Luc assessed as inhibition of LPS-induced NFkB signalling activation by measuring reduction in IL-1beta secretion pretreated for 30 mins followed by LPS stimulation for 24 hrs by electrochemiluminescence assay; type: cell-based
[7] = molecular target: T1, N-formyl peptide receptor 2; test: Agonist activity at ALX/FPR2 in human THP1 cells harboring NF-kB-Luc assessed as inhibition of LPS-induced NFkB signalling activation by measuring reduction in IL-6 secretion pretreated for 30 mins followed by LPS stimulation for 24 hrs by electrochemiluminescence assay; type: cell-based
[8] = species on record: Homo sapiens; test: Activation of Luc-fused NFkB (unknown origin) expressed in non-stimulated human THP1 cells assessed as relative luminescence unit at 10^-10 M after 24 hrs by luciferase reporter gene assay (reference value: 100%); type: cell-based
[9] = molecular target: T1, N-formyl peptide receptor 2; test: Agonist activity at ALX/FPR2 in human THP1 cells harboring NF-kB-Luc assessed as inhibition of LPS-induced NFkB signalling activation pretreated for 30 mins followed by LPS stimulation for 24 hrs by luciferase reporter gene assay; type: cell-based
[10] = species on record: Homo sapiens; test: Activation of Luc-fused NFkB (unknown origin) expressed in non-stimulated human THP1 cells assessed as relative luminescence unit at 10^-6 M after 24 hrs by luciferase reporter gene assay (reference value: 100%); type: cell-based
[11] = species on record: Homo sapiens; test: Activation of Luc-fused NFkB (unknown origin) expressed in non-stimulated human THP1 cells assessed as relative luminescence unit at 10^-12 M after 24 hrs by luciferase reporter gene assay (reference value: 100%); type: cell-based
[12] = species on record: Homo sapiens; test: Activation of Luc-fused NFkB (unknown origin) expressed in non-stimulated human THP1 cells assessed as relative luminescence unit at 10^-11 M after 24 hrs by luciferase reporter gene assay (reference value: 100%); type: cell-based
[13] = test system: HEK293; test: Induction of intracellular calcium accumulation in HEK293 cells at 0.01 nM to 100 nM by Fluo-4 dye based fluorescence spectrophotometric assay; type: functional, cell-based; conditions: Homo sapiens
[14] = test system: THP-1; test: Cytotoxicity against human THP1 cells harboring NFkB-Luc assessed as LDH release at 10'12 M after 24 hrs by spectrophotometric method relative to control; type: cell-based; conditions: thp-1, 24 h
[15] = test system: THP-1; test: Cytotoxicity against human THP1 cells harboring NFkB-Luc assessed as LDH release at 10'9 M after 24 hrs by spectrophotometric method relative to control; type: cell-based; conditions: thp-1, 24 h
[16] = test system: THP-1; test: Cytotoxicity against human THP1 cells harboring NFkB-Luc assessed as LDH release at 10'11 M after 24 hrs by spectrophotometric method relative to control; type: cell-based; conditions: thp-1, 24 h
[17] = test system: THP-1; test: Cytotoxicity against human THP1 cells harboring NFkB-Luc assessed as LDH release at 10'7 M after 24 hrs by spectrophotometric method relative to control; type: cell-based; conditions: thp-1, 24 h
[18] = test system: THP-1; test: Cytotoxicity against human THP1 cells harboring NFkB-Luc assessed as LDH release at 10'10 M after 24 hrs by spectrophotometric method relative to control; type: cell-based; conditions: thp-1, 24 h
[19] = species on record: Homo sapiens; test: Activation of Luc-fused NFkB (unknown origin) expressed in non-stimulated human THP1 cells assessed as relative luminescence unit at 10^-8 M after 24 hrs by luciferase reporter gene assay (reference value: 100%); type: cell-based
[20] = test system: THP-1; test: Cytotoxicity against human THP1 cells harboring NFkB-Luc assessed as LDH release at 10'8 M after 24 hrs by spectrophotometric method relative to control; type: cell-based; conditions: thp-1, 24 h
[21] = test system: THP-1; test: Cytotoxicity against human THP1 cells harboring NFkB-Luc assessed as LDH release at 10'6 M after 24 hrs by spectrophotometric method relative to control; type: cell-based; conditions: thp-1, 24 h
[22] = molecular target: T2, N-formyl peptide receptor 2 (Homo sapiens) (UniProt P25090); test: Agonist activity at ALX/FPR2 in human THP1 cells harboring NF-kB-Luc assessed as inhibition of LPS-induced NFkB signalling activation by measuring NF-kB activation level at 10^-12 M pretreated for 30 mins followed by LPS stimulation for 24 hrs by luciferase reporter gene assay; type: cell-based; set-up: scale not given: the % may be the effect or the level left
T2 sequence (whole entry): T1 sequence (P25090 whole entry)

[23] = molecular target: T2, N-formyl peptide receptor 2 (Homo sapiens); test: Agonist activity at ALX/FPR2 in human THP1 cells harboring NF-kB-Luc assessed as inhibition of LPS-induced NFkB signalling activation by measuring IL-1beta secretion at 10^-12 M pretreated for 30 mins followed by LPS stimulation for 24 hrs by electrochemiluminescence assay (reference value: 100%); type: cell-based; set-up: scale not given: the % may be the effect or the level left
[24] = molecular target: T2, N-formyl peptide receptor 2 (Homo sapiens); test: Agonist activity at ALX/FPR2 in human THP1 cells harboring NF-kB-Luc assessed as inhibition of LPS-induced NFkB signalling activation by measuring IL-12p70 secretion at 10^-12 M pretreated for 30 mins followed by LPS stimulation for 24 hrs by electrochemiluminescence assay (reference value: 100%); type: cell-based; set-up: scale not given: the % may be the effect or the level left
[25] = molecular target: T2, N-formyl peptide receptor 2 (Homo sapiens); test: Agonist activity at ALX/FPR2 in human THP1 cells harboring NF-kB-Luc assessed as inhibition of LPS-induced NFkB signalling activation by measuring IFNgamma secretion at 10^-12 M pretreated for 30 mins followed by LPS stimulation for 24 hrs by electrochemiluminescence assay (reference value: 100%); type: cell-based; set-up: scale not given: the % may be the effect or the level left
[26] = molecular target: T2, N-formyl peptide receptor 2 (Homo sapiens); test: Agonist activity at ALX/FPR2 in human THP1 cells harboring NF-kB-Luc assessed as inhibition of LPS-induced NFkB signalling activation by measuring IL-6 secretion at 10^-12 M pretreated for 30 mins followed by LPS stimulation for 24 hrs by electrochemiluminescence assay (reference value: 100%); type: cell-based; set-up: scale not given: the % may be the effect or the level left
[27] = molecular target: T2, N-formyl peptide receptor 2 (Homo sapiens); test: Agonist activity at ALX/FPR2 in human THP1 cells harboring NF-kB-Luc assessed as inhibition of LPS-induced NFkB signalling activation by measuring TNFalpha secretion at 10^-12 M pretreated for 30 mins followed by LPS stimulation for 24 hrs by electrochemiluminescence assay (reference value: 100%); type: cell-based; set-up: scale not given: the % may be the effect or the level left
[28] = test system: HEK293; test: Induction of intracellular calcium accumulation in HEK293 cells at 1 uM by Fluo-4 dye based fluorescence spectrophotometric assay; type: functional, cell-based; conditions: Homo sapiens
[29] = molecular target: T2, N-formyl peptide receptor 2 (Homo sapiens); test: Agonist activity at ALX/FPR2 (unknown origin) expressed in HEK293 cells co-expressing Galphaq assessed as induction of intracellular calcium accumulation at 1 uM by Fluo-4 dye based fluorescence spectrophotometric assay; type: functional, cell-based

| Structure (SMILES) | Activity [1] | IC50 [3] | IC50 [4] | Activity [5] | IC50 [6] | IC50 [7] | Activity [8] | IC50 [9] | Activity [10] | Activity [11] | IC50 ([2]; read-out: IC50) | IC50 ([3]; read-out: IC50) | IC50 ([4]; read-out: IC50) | IC50 ([6]; read-out: IC50) | Activity [12] | IC50 ([7]; read-out: IC50) | Activity [19] | also measured |
| --- | --- | --- | --- | --- | --- | --- | --- | --- | --- | --- | --- | --- | --- | --- | --- | --- | --- | --- |
| COC(=O)CCC[C@H](O)[C@H](O)/C=C/c1nc(C)n(C)c1[C@H](C)O | 3.5% | Not Active | Not Active | 3.4% | Not Active | Not Active | 4.5% | 27.8 nM | 2.4% | 3.1% |  |  |  |  |  |  |  | IC50 [2]: Not Active |
| CCCCC[C@H](O)c1c(/C=C/[C@@H](O)[C@@H](O)CCCC(=O)OC)nc(C)n1C | 3.7% |  |  | 4.6% |  |  | 8.9% | 25.3 nM | 5.5% | 5.2% | 0.1 nM | 2.2 nM | 3.4 nM | 2.6 nM | 4.4% | 60.6 nM |  |  |
| CCCCC[C@H](O)c1nc(-c2ccccc2)oc1/C=C/[C@@H](O)[C@@H](O)CCCC(=O)OC(C)C | 4% |  |  | 5.3% |  |  | 6.2% | 69.6 nM | 6.1% | 6.2% | 5.1 nM | 2.5 nM | 6.7 nM | 3.2 nM | 4.5% | 31.4 nM | 4.3% | Activity [13]: inactive; fold change (FC) [14]: 1.1; fold change (FC) [15]: 0.9; fold change (FC) [16]: 1.1; fold change (FC) [17]: 1; fold change (FC) [18]: 1; fold change (FC) [20]: 1; fold change (FC) [21]: 1 |
| CCCCC[C@@H](O)c1ccccc1/C=C/[C@@H](O)[C@@H](O)CCCC(=O)OC |  |  |  |  |  |  |  |  |  | 2.9% |  |  |  |  |  |  |  | Activity [22]: 80%; fold change (FC) [14]: 0.9; Activity [23]: 39.7%; Activity [24]: 62.9%; Activity [25]: 83.9%; Activity [26]: 61.1%; Activity [27]: 64.2% |
| CCC[C@@H](O)c1c(/C=C/[C@@H](O)[C@@H](O)CCCC(=O)OC)nc(C)n1C | 1.4% |  |  | 2.2% |  |  | 1.8% | 40.3 nM | 0.9% | 1.8% | 3.4 nM | 4.3 nM | 4.8 nM | 3.7 nM | 1.6% | 55.8 nM |  |  |
| COC(=O)CCC[C@H](O)[C@H](O)/C=C/c1nc(C)n(C)c1[C@@H](C)O | 9.4% | Not Active | Not Active | 8.8% | Not Active | Not Active | 9.3% | 27.8 nM | 9.6% | 9.7% | 3.8 nM |  |  |  | 8.8% |  | 10.4% |  |
| CCC[C@H](O)c1c(/C=C/[C@@H](O)[C@@H](O)CCCC(=O)OC)nc(C)n1C | 1.4% |  | Not Active | 1.7% |  | Not Active | 3.2% | 31.5 nM | 1.3% | 1.4% | 6 nM | 0.9 nM |  | 3.6 nM | 1.9% |  | 1.6% |  |
| CCCCC[C@@H](O)c1nc(-c2ccccc2)oc1/C=C/[C@@H](O)[C@@H](O)CCCC(=O)OC(C)C | 3% | Not Active |  | 2.7% | Not Active |  | 3.2% | 37.3 nM | 2.7% | 3.4% |  |  | 6.5 nM |  | 2.8% | 6.8 nM | 2.6% | IC50 [2]: Not Active |
| Nc1ncnc2c1ncn2[C@@H]1O[C@H](COP(=O)(O)OP(=O)(O)OP(=O)(O)O)[C@@H](O)[C@H]1O |  |  |  |  |  |  |  |  |  |  |  |  |  |  |  |  |  | Activity [28]: Active; Activity [29]: Active |
